From patent US8110687B2, “Bicyclic compounds with kinase inhibitory activity” (Millennium Pharmaceuticals, Inc., priority 2005, dated 2012)

What follows are molecules tested on phospho-ERK formation (Raf kinase activity) in A375 cells (assay: Phospho-ERK ELISA assay). Conditions: Homo sapiens, A-375, 3 h, 3 hours with inhibitor, read-out: IC50, inhibition of the formation of phospho-ERK.
Assay type: cell-based
Protocol: Inhibition of Raf kinase activity in whole cell systems can be assessed by determining the decrease in phosphorylation of Raf kinase substrates. Any known Raf kinase substrate can be used to measure inhibition of Raf kinase activity in a whole cell system.
Medium was removed, and cells were incubated with Raf kinase inhibitors for 3 hours at 37° C. Medium was removed, and cells were fixed with 4% paraformaldehyde for 15 minutes at room temperature.
Methanol was added for 15 min. Cells were removed and blocked with 10% sheep serum and 1% BSA in PBS overnight at 4° C. Cells were incubated with anti-p44/42MAPK antibody (1:100, Cell Signaling Technologies, #9101L) (20 μL/well) for one hour at room temperature. After washing with PBS three times, cells were stained with anti-rabbit horseradish peroxidase-linked antibody from donkey (1:100, Amersham Bioscience #NA934V) for 1 hour at room temperature. Cells were washed three times with 0.5% Tween-20 in PBS and twice with PBS. 3,3′, 5,5′-Tetramethylbenzidine (TMB) liquid substrate system (Sigma, #T8665) (50 μL/well) was added, and cells were incubated for 30-45 minutes at room temperature. Optical density was read at 650 nm. Cells were then washed 3-5 times with PBS to remove color solution. Results were normalized for the protein content in each well using a BCA protein assay kit (Pierce).

IC50, ≤ 25 µM:
CNC(=O)c1cc(Oc2ccc3c(c2)C[C@H](C(=O)Nc2cc(CN)cc(C(F)(F)F)c2)CC3)ccn1 [Compound I-244, 4-{[(7R)-7-({[3-(aminomethyl)-5-(trifluoromethyl)phenyl]amino}carbonyl)-5,6,7,8-tetrahydronaphthalen-2-yl]oxy}-N-methylpyridine-2-carboxamide]
CC(=O)NCc1cc(Oc2ccc3c(c2)CC(C(=O)Nc2cccc(C(C)(C)C)c2)CC3)ccn1 (centres unmarked) [Compound I-246, 7-({2-[(acetylamino)methyl]pyridin-4-yl}oxy)-N-(3-tert-butylphenyl)-1,2,3,4-tetrahydronaphthalene-2-carboxamide]
CC(C)(C)c1cccc(NC(=O)C2CCc3ccc(Oc4ccnc(NS(C)(=O)=O)c4)cc3C2)c1 (centres unmarked) [Compound I-254, N-(3-tert-butylphenyl)-7-({2-[(methylsulfonyl)amino]pyridin-4-yl}-oxy)-1,2,3,4-tetrahydronaphthalene-2-carboxamide]
O=C(Nc1cc(C(F)(F)F)ccc1OCCN1CCNCC1)C1CCc2ccc(Oc3ccnc(C4=NCCN4)c3)cc2C1 (centres unmarked) [Compound I-261, 7-{[2-(4,5-dihydro-1H-imidazol-2-yl)pyridin-4-yl]oxy}-N-[2-(2-piperazin-1-ylethoxy)-5-(trifluoromethyl)phenyl]-1,2,3,4-tetrahydronaphthalene-2-carboxamide]
NCc1cc(NC(=O)C2CCc3ccc(Oc4ccnc(N)c4)cc3C2)cc(C(F)(F)F)c1 (centres unmarked) [Compound I-271, N-[3-(aminomethyl)-5-(trifluoromethyl)phenyl]-7-[(2-aminopyridin-4-yl)oxy]-1,2,3,4-tetrahydronaphthalene-2-carboxamide]
CC(=O)Nc1cc(Oc2ccc3c(c2)CC(C(=O)Nc2ccc(C(F)(F)F)cc2)CC3)ccn1 (centres unmarked) [Compound I-281, 7-{[2-(acetylamino)pyridin-4-yl]oxy}-N-[4-(trifluoromethyl)phenyl]-1,2,3,4-tetrahydronaphthalene-2-carboxamide]
CC(C)(C)c1cccc(NC(=O)c2cnc3ccc(Oc4ccncc4)cc3c2)c1 [Compound I-299, N-(3-tert-butylphenyl)-6-(pyridin-4-yloxy)quinoline-3-carboxamide]
CC(=O)Nc1cc(Oc2ccc3c(c2)CC(C(=O)Nc2ccc(Cl)cc2)CC3)ccn1 (centres unmarked) [Compound I-303, 7-{[2-(acetylamino)pyridin-4-yl]oxy}-N-(4-chlorophenyl)-1,2,3,4-tetrahydronaphthalene-2-carboxamide]
CC(C)(C)c1cccc(NC(=O)C2CCc3ccc(Oc4ccnc(CN)c4)cc3C2)c1 (centres unmarked) [Compound I-331, 7-{[2-(aminomethyl)pyridin-4-yl]oxy}-N-(3-tert-butylphenyl)-1,2,3,4-tetrahydronaphthalene-2-carboxamide]
CC(C)(C)c1cccc(NC(=O)c2ccc3ccc(Oc4ccnc(C#N)c4)cc3c2)c1 [Compound I-340, N-(3-tert-butylphenyl)-7-[(2-cyanopyridin-4-yl)oxy]-2-naphthamide]
Cn1cc(-c2cc(Oc3ccc4c(c3)CC(C(=O)Nc3cc(CN5CCCC5)cc(C(F)(F)F)c3)CC4)ccn2)cn1 (centres unmarked) [Compound I-344, 7-{[2-(1-methyl-1H-pyrazol-4-yl)pyridin-4-yl]oxy}-N-[3-(pyrrolidin-1-ylmethyl)-5-(trifluoromethyl)phenyl]-1,2,3,4-tetrahydronaphthalene-2-carboxamide]
CC(C)(C)c1cccc(NC(=O)C2COc3ccc(Oc4ccnc(C5=NCCN5)c4)cc3C2)c1 (centres unmarked) [Compound I-349, N-(3-tert-butylphenyl)-6-{[2-(4,5-dihydro-1H-imidazol-2-yl)pyridin-4-yl]oxy}chromane-3-carboxamide]
O=C(Nc1cc(OCCN2CCCC2)cc(C(F)(F)F)c1)c1cnc2ccc(Oc3ccncc3)cc2c1 [Compound I-351, 6-(pyridin-4-yloxy)-N-[3-(2-pyrrolidin-1-ylethoxy)-5-(trifluoromethyl)phenyl]quinoline-3-carboxamide]
NCc1cc(NC(=O)C2CCc3ccc(Oc4ccnc(C(=O)N5CCCC5)c4)cc3C2)cc(C(F)(F)F)c1 (centres unmarked) [Compound I-362, N-[3-(aminomethyl)-5-(trifluoromethyl)phenyl]-7-{[2-(pyrrolidin-1-ylcarbonyl)pyridin-4-yl]oxy}-1,2,3,4-tetrahydronaphthalene-2-carboxamide]
N=C(N)c1cc(Oc2ccc3ccc(C(=O)Nc4ccc(CN)c(C(F)(F)F)c4)cc3c2)ccn1 [Compound I-381, 7-({2-[amino(imino)methyl]pyridin-4-yl}oxy)-N-[4-(aminomethyl)-3-(trifluoromethyl)phenyl]-2-naphthamide]
CN1CCN(c2cc(Oc3ccc4c(c3)CC(C(=O)Nc3cccc(C(C)(C)C)c3)CC4)ccn2)CC1 (centres unmarked) [Compound I-415, N-(3-tert-butylphenyl)-7-{[2-(4-methylpiperazin-1-yl)pyridin-4-yl]oxy}-1,2,3,4-tetrahydronaphthalene-2-carboxamide]
CCNC(=O)NCc1cc(NC(=O)C2CCc3ccc(Oc4ccnc(C(=O)NC)c4)cc3C2)cc(C(F)(F)F)c1 (centres unmarked) [Compound I-420, 4-{[7-({[3-({[(ethylamino)carbonyl]amino}methyl)-5-(trifluoromethyl)phenyl]amino}carbonyl)-5,6,7,8-tetrahydronaphthalen-2-yl]-oxy}-N-methylpyridine-2-carboxamide]
CNC(=O)c1cc(Oc2ccc3c(c2)CC(NC(=O)c2ccc(Cl)c(C(F)(F)F)c2)CC3)ccn1 (centres unmarked) [Compound I-444, 4-[(7-{[4-chloro-3-(trifluoromethyl)benzoyl]amino}-5,6,7,8-tetrahydronaphthalen-2-yl)oxy]-N-methylpyridine-2-carboxamide]
CC(C)(C)c1cccc(NC(=O)c2cnc3ccc(Oc4ccnc(C#N)c4)cc3c2)c1 [Compound I-448, N-(3-tert-butylphenyl)-6-[(2-cyanopyridin-4-yl)oxy]quinoline-3-carboxamide]
CNC(=O)c1cc(Oc2ccc3c(c2)CC(NC(=O)c2cccc(C(C)(C)C)c2)CC3)ccn1 (centres unmarked) [Compound I-460, 4-({7-[(3-tert-butylbenzoyl)amino]-5,6,7,8-tetrahydronaphthalen-2-yl}oxy)-N-methylpyridine-2-carboxamide]
